Here are results for eleven molecules from PubChem BioAssay (NCI).

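Cultured in 96-well plates, cells were exposed to test compound for 48 hours across five concentrations. Here, GI50 denotes the concentration required for 50% inhibition of growth. TGI denotes the concentration required for complete inhibition of growth.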

Among the test systems are 786-0 renal; K-562 leukemia; MALME-3M melanoma; NCI/ADR-RES ovarian; OVCAR-4 ovarian; RPMI-8226 leukemia; SN12C renal; UACC-62 melanoma; UACC-257 melanoma.
Common to all, as to assay: DTP human tumour cell line panel, 48 h

In general, GI50 refers to the concentration that inhibits growth by half. In general, TGI refers to the concentration at which net growth stops. As to `CC(C)(C)c1ccc(Oc2nccc(-c3c(-c4ccc(F)cc4)ncn3C3CCNCC3)n2)cc1`, the GI50 was 4.22 µM in the assay on 786-0 renal; 0.849 µM in the assay with K-562 leukemia; 4.94 µM with MALME-3M melanoma; 3.39 µM in the assay on NCI/ADR-RES ovarian; 3.61 µM with OVCAR-4 ovarian; 3.56 µM with RPMI-8226 leukemia. Besides, the GI50 in the assay on SN12C renal is 3.65 µM; in the assay with UACC-62 melanoma it was 4.25 µM. Further, the TGI with 786-0 renal was 8.12 µM; in the assay with K-562 leukemia, 4.7 µM; with MALME-3M melanoma, 9.38 µM; in the assay on NCI/ADR-RES ovarian, 7 µM; in the assay on OVCAR-4 ovarian, 7.32 µM; in the assay on RPMI-8226 leukemia, 7.97 µM. The values for the TGI with SN12C renal and with UACC-62 melanoma were 7.06 µM and 7.77 µM, respectively.

Consider `C[C@H]1[C@H](C)CC[C@]2(CO)CC[C@]3(C)C(=CC[C@@H]4[C@@]5(C)CCCNC(C)(C)[C@@H]5CC[C@]43C)[C@H]12`, for which the GI50 with 786-0 renal is 1.6 µM; in the assay with K-562 leukemia, 0.471 µM; in the assay on MALME-3M melanoma, 1.68 µM; with NCI/ADR-RES ovarian it was 1.76 µM; with RPMI-8226 leukemia, 1.85 µM; in the assay with SN12C renal it was 1.64 µM. Also, the GI50 is 1.95 µM in the assay with UACC-257 melanoma and 1.85 µM in the assay on UACC-62 melanoma. Also, the total growth inhibition concentration (TGI) with 786-0 renal is 3.06 µM; with K-562 leukemia, 2.02 µM; with MALME-3M melanoma, 3.44 µM; with NCI/ADR-RES ovarian, 3.47 µM; with RPMI-8226 leukemia, 4.14 µM; with SN12C renal, 3.11 µM. For the same molecule, the TGI in the assay with UACC-257 melanoma was 3.7 µM; in the assay with UACC-62 melanoma, 3.35 µM.

With `CC(=O)CC(=O)OC1CC(C)CCC1C(C)C` (configuration not stated), the TGI in the assay on 786-0 renal was > 100 µM; in the assay on K-562 leukemia it was > 100 µM; in the assay with MALME-3M melanoma, > 100 µM; in the assay with OVCAR-4 ovarian, > 100 µM; with RPMI-8226 leukemia, 46.1 µM; with SN12C renal, > 100 µM. Further, the TGI in the assay on UACC-257 melanoma and in the assay with UACC-62 melanoma was > 100 µM throughout.

For the molecule `COc1ccc(-c2nc(-c3nc4ccc(OC)cc4[nH]3)c3ccccn23)cc1`, the GI50 with 786-0 renal was 8.47 µM; in the assay with K-562 leukemia it was 3.6 µM; in the assay with MALME-3M melanoma, 13.3 µM; in the assay on NCI/ADR-RES ovarian it was 3.86 µM; with OVCAR-4 ovarian, 4.53 µM; in the assay with RPMI-8226 leukemia it was 1.72 µM. The results for the GI50 with SN12C renal, in the assay with UACC-257 melanoma and with UACC-62 melanoma were 3.91 µM, 4.39 µM and 4.51 µM, respectively. Also, the TGI in the assay on 786-0 renal is > 100 µM; in the assay with K-562 leukemia, > 100 µM; in the assay on MALME-3M melanoma, 70.5 µM; in the assay on NCI/ADR-RES ovarian, 57.7 µM; with OVCAR-4 ovarian, > 100 µM; in the assay with RPMI-8226 leukemia it was 5.57 µM. Further, the TGI in the assay with SN12C renal was > 100 µM; with UACC-257 melanoma, 26.1 µM; in the assay with UACC-62 melanoma it was 22 µM.

In the case of `Nc1ccnc(=O)[nH]1`, the total growth inhibition concentration (TGI) with 786-0 renal, in the assay with K-562 leukemia, in the assay with MALME-3M melanoma, with OVCAR-4 ovarian, in the assay with RPMI-8226 leukemia and in the assay on SN12C renal was > 100 µM in each case. The TGI in the assay with UACC-257 melanoma and in the assay with UACC-62 melanoma was > 100 µM in each case.

Turning to `COC(=O)/C(C)=C(/CCC1(C)OCCO1)O[Si](C)(C)C`, the TGI in the assay with 786-0 renal, in the assay with K-562 leukemia, with MALME-3M melanoma, with OVCAR-4 ovarian, with RPMI-8226 leukemia and in the assay on SN12C renal was > 100 µM in each case. Besides, the TGI in the assay on UACC-257 melanoma and with UACC-62 melanoma was > 100 µM each time.

Turning to `COc1cc(C(=O)O[C@H](C(=O)NCCCCCNC(=O)[C@@H](OC(=O)c2cc(OC)cc3c(C)cccc23)[C@]2(C)CO2)[C@]2(C)CO2)c2cccc(C)c2c1`, the GI50 with 786-0 renal was < 0.01 µM; with K-562 leukemia it was 0.437 µM; in the assay with NCI/ADR-RES ovarian, 0.165 µM; in the assay on OVCAR-4 ovarian, 0.877 µM; in the assay on RPMI-8226 leukemia, 1.82 µM; with SN12C renal, 0.364 µM. The GI50 in the assay on UACC-257 melanoma is 2.03 µM; in the assay on UACC-62 melanoma, 0.53 µM. Also, the TGI was 0.0115 µM in the assay on 786-0 renal; > 36.3 µM in the assay with K-562 leukemia; 0.584 µM in the assay on NCI/ADR-RES ovarian; > 100 µM in the assay with OVCAR-4 ovarian; 10.2 µM in the assay with RPMI-8226 leukemia; 1.15 µM in the assay on SN12C renal. Also, the TGI worked out at 5.33 µM with UACC-257 melanoma and 1.08 µM with UACC-62 melanoma.

As to `Cc1ccc(S(=O)(=O)N/N=C/c2c(O)ccc3ccccc23)cc1`, the TGI in the assay on 786-0 renal was > 100 µM; with K-562 leukemia, > 100 µM; with MALME-3M melanoma, 77.4 µM; with NCI/ADR-RES ovarian, > 100 µM; with OVCAR-4 ovarian it was 84.3 µM; with RPMI-8226 leukemia, > 100 µM. The TGI was > 100 µM with SN12C renal, > 100 µM with UACC-257 melanoma and 49.4 µM in the assay with UACC-62 melanoma.

`CCc1cc(C(=O)OC)cn1C(=N)c1ccc(Cl)cc1`: the TGI in the assay with 786-0 renal, in the assay with K-562 leukemia, with MALME-3M melanoma, in the assay with OVCAR-4 ovarian, in the assay on RPMI-8226 leukemia and in the assay on SN12C renal was > 100 µM in each case. Further, the TGI in the assay on UACC-257 melanoma and in the assay on UACC-62 melanoma was > 100 µM in each case.

With `CCC(C)(CC(C)(C)C(=O)NCC(=O)NC(Cc1ccccc1)C(=O)NC(Cc1ccccc1)C(=O)NCC(=O)NC1CC(OC2CC(O)(C(=O)CO)Cc3c(O)c4c(c(O)c32)C(=O)c2c(OC)cccc2C4=O)OC(C)C1O)C(=O)NCC(C)O` (configuration not stated), the GI50 in the assay on 786-0 renal is 54.3 µg/mL; in the assay with K-562 leukemia it was 86.3 µg/mL; with NCI/ADR-RES ovarian it was > 150 µg/mL; with OVCAR-4 ovarian, > 150 µg/mL; in the assay with RPMI-8226 leukemia it was 36 µg/mL; in the assay on SN12C renal, 81.2 µg/mL. Also, the GI50 in the assay with UACC-257 melanoma is > 150 µg/mL; with UACC-62 melanoma, 75 µg/mL. Further, the TGI with 786-0 renal, in the assay with K-562 leukemia, with NCI/ADR-RES ovarian, with OVCAR-4 ovarian, with RPMI-8226 leukemia and in the assay on SN12C renal was > 150 µg/mL in each case. Besides, the TGI in the assay on UACC-257 melanoma and in the assay on UACC-62 melanoma was > 150 µg/mL throughout.

Regarding `COc1cc(NC(C)CCCNC2CN3CCC2CC3)c2ncccc2c1` (configuration not stated), the GI50 was 13.4 µM in the assay on 786-0 renal; 10 µM with MALME-3M melanoma; 24.6 µM in the assay on NCI/ADR-RES ovarian; 1.84 µM with OVCAR-4 ovarian; 14.1 µM with SN12C renal; 2.39 µM with UACC-257 melanoma. Moreover, the GI50 in the assay with UACC-62 melanoma is 3.2 µM. In addition, the TGI is 27.1 µM in the assay with 786-0 renal; 24.3 µM with MALME-3M melanoma; > 100 µM in the assay with NCI/ADR-RES ovarian; 6.51 µM in the assay on OVCAR-4 ovarian; 29.4 µM in the assay on SN12C renal; 5.74 µM with UACC-257 melanoma. Besides, the TGI with UACC-62 melanoma was found to be 10.5 µM.
